These results are taken from PubChem BioAssay AID1053141 (Broad Institute, 2014).

Inconclusive results are not listed. Activity calls are given as the source filed them.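 Rule for the calls: active = compounds lowering cell ATP signal, with AC50 no higher than twice their own top valid dose; inconclusive = flat curve with 30 to 70% signal loss, or poor fit; inactive = the rest, including signal rises.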

One assay deals with HEK293T viability, CellTiter-Glo ATP luminescence, 72 h. Kind of assay: viability loss in HEK293 kidney cells – cell-based, ATP luminescence, dry powder, set 19, cytotoxicity control, dose response (AID 1053141).
Details: not given
A word on the AC50: it is the concentration at which the activity in the assay is half-maximal. On to `CO[C@H]1CN(C)C(=O)c2cc(NC(=O)NC(C)C)ccc2OC[C@H](C)N(Cc2ccc(-c3ccccn3)cc2)C[C@@H]1C`, for which the AC50 was 27 µM.
Same read-out and setting: for `CCCC(=O)Nc1ccc2c(c1)OC[C@H](C)N(Cc1ccccc1)C[C@H](C)[C@@H](OC)CN(C)C2=O` the value was > 52 µM (inactive); for `CCC(CC)Nc1c(Nc2ccc3c(c2)C(=O)N(C)C[C@H](OC)[C@@H](C)CN(Cc2ccc(-c4ccccn4)cc2)[C@@H](C)CO3)c(=O)c1=O`, 39.8 µM; for `CO[C@H]1CN(C)C(=O)c2cc(NC(=O)C(C)C)ccc2OC[C@H](C)N(Cc2ccc(-c3ccccn3)cc2)C[C@@H]1C`, 52.3 µM.
Regarding `CO[C@H]1CN(C)C(=O)c2cc(NC(=O)NC(C)C)ccc2OC[C@H](C)N(Cc2ccc(F)cc2)C[C@@H]1C`, the AC50 is 29.7 µM.
Turning to `CO[C@H]1CN(C)C(=O)c2cc(NC(=O)NC(C)C)ccc2OC[C@H](C)NC[C@@H]1C`, the AC50 is > 100 µM (inactive).
Regarding `CO[C@H]1CN(C)C(=O)c2cc(NC(=O)NC(C)C)ccc2OC[C@H](C)N(C(=O)Nc2ccc(-c3ccccn3)cc2)C[C@@H]1C`, the AC50 is > 100 µM (inactive).
Take `CO[C@H]1CN(C)C(=O)c2cc(Nc3c(NC4CC4)c(=O)c3=O)ccc2OC[C@H](C)N(Cc2ccc(-c3ccccn3)cc2)C[C@@H]1C`: the AC50 was 15 µM.
On the same count and under the same terms, for `CO[C@H]1CN(C)C(=O)c2cc(Nc3c(NC4CCCC4)c(=O)c3=O)ccc2OC[C@H](C)N(Cc2ccc(-c3ccccn3)cc2)C[C@@H]1C` the value was 13.8 µM; for `CO[C@H]1CN(C)C(=O)c2cc(NC(=O)NC(C)C)ccc2OC[C@H](C)N(Cc2cccc(F)c2)C[C@@H]1C`, 35.8 µM; for `CO[C@H]1CN(C)C(=O)c2cc(NC(=O)NC(C)C)ccc2OC[C@H](C)N(Cc2ccc(-c3ccncc3)cc2)C[C@@H]1C`, 30.7 µM.
Take `CO[C@H]1CN(C)C(=O)c2cc(Nc3ncccn3)ccc2OC[C@H](C)N(Cc2ccc(-c3ccccn3)cc2)C[C@@H]1C`: the half-maximal activity concentration (AC50) is 24.5 µM.
`CO[C@H]1CN(C)C(=O)c2cc(NC(=O)NC(C)C)ccc2OC[C@H](C)N(Cc2ccc(-c3cccnc3)cc2)C[C@@H]1C`: the concentration at half-maximal activity (AC50) is 37.7 µM.
`CO[C@H]1CN(C)C(=O)c2cc(NC(=O)NC(C)C)ccc2OC[C@H](C)N(Cc2ccccc2)C[C@@H]1C`: the AC50 is 44.5 µM.
`CO[C@H]1CN(C)C(=O)c2cc(NC(=O)NC(C)C)ccc2OC[C@H](C)N(Cc2ccccc2F)C[C@@H]1C`: the half-maximal activity concentration (AC50) was 27.4 µM.

System in the next assay: not listed separately
The assay is described as above. To be noted: HEK293T viability, CellTiter-Glo ATP luminescence, 72 h; at 26 µM (top of the series). (In general: Cellular ATP, detected with luciferase, serves as a proxy for viable cell number.)
Consider `CO[C@H]1CN(C)C(=O)c2ccc(NC(=O)NC(C)C)cc2OC[C@H](C)N(Cc2ccccc2)C[C@@H]1C`, for which the activity change, negative = cytotoxicity is 94.8% (inactive).
The same measure, in the same setting: under `CCCNC(=O)Nc1ccc2c(c1)OC[C@H](C)N(Cc1ccc(-c3ccccn3)cc1)C[C@H](C)[C@@H](OC)CN(C)C2=O` stands 12.5% (inactive); under `CCCNC(=O)Nc1ccc2c(c1)OC[C@H](C)N(Cc1ccccc1)C[C@H](C)[C@@H](OC)CN(C)C2=O`, 49.2% (inactive).
For `CCCC(=O)Nc1ccc2c(c1)OC[C@H](C)N(Cc1ccc(-c3ccccn3)cc1)C[C@H](C)[C@@H](OC)CN(C)C2=O`, the activity change, negative = cytotoxicity is 4.89% (inactive).
For the molecule `CO[C@H]1CN(C)C(=O)c2ccc(NC(=O)NC(C)C)cc2OC[C@H](C)N(Cc2ccc(-c3ccccn3)cc2)C[C@@H]1C`, the activity change, negative = cytotoxicity was -6.54% (inactive).

Staying with this assay, now noted: HEK293T viability, CellTiter-Glo ATP luminescence, 72 h; at 50 µM (top of the series).
Consider `CO[C@H]1CN(C)C(=O)c2cc(NC(=O)NC(C)C)ccc2OC[C@H](C)N(C(=O)c2ccc(-c3ccccn3)cc2)C[C@@H]1C`, for which the activity change, negative = cytotoxicity was -14% (inactive).
Turning to `CO[C@H]1CN(C)C(=O)c2cc(NC(=O)NC(C)C)ccc2OC[C@H](C)N(Cc2cncnc2)C[C@@H]1C`, the activity change, negative = cytotoxicity is 24.6% (inactive).
For the molecule `CO[C@H]1CN(C)C(=O)c2cc(NC(=O)NC(C)C)ccc2OC[C@H](C)N(Cc2ccccn2)C[C@@H]1C`, the activity change, negative = cytotoxicity is 43.7% (inactive).
The same measure, in the same setting: for `CO[C@H]1CN(C)C(=O)c2cc(NC(=O)NC(C)C)ccc2OC[C@H](C)N(Cc2ccncc2)C[C@@H]1C` the value was -29.6% (inactive); for `CO[C@H]1CN(C)C(=O)c2cc(NC(=O)NC(C)C)ccc2OC[C@H](C)N(C(=O)c2ccccc2)C[C@@H]1C`, 13.8% (inactive).
Take `CO[C@H]1CN(C)C(=O)c2cc(NC(=O)NC(C)C)ccc2OC[C@H](C)N(Cc2cccnc2)C[C@@H]1C`: the activity change, negative = cytotoxicity was 30.5% (inactive).
